Laboratory results taken from ChEMBL document CHEMBL5104182, “Design and Synthesis of a 2-Amino-pyridine Derivative as a Potent CDK8 Inhibitor for Anti-colorectal Cancer Therapy” (J Med Chem, 2022).

Tests used:
HCT-116 = experiment: Antiproliferative activity against human HCT-116 cells assessed as cell viability incubated for 48 hrs by MTT assay; type: functional
HT-29 = experiment: Antiproliferative activity against human HT-29 cells assessed as cell viability incubated for 48 hrs by MTT assay; type: functional
SW480 = experiment: Antiproliferative activity against human SW480 cells assessed as cell viability incubated for 48 hrs by MTT assay; type: functional
CT26 = experiment: Antiproliferative activity against […] cells assessed as cell viability incubated for 48 hrs by MTT assay; type: functional; conditions: Mus musculus
[1] = Cytotoxicity against human GES1 cells assessed as cell viability incubated for 48 hrs by MTT assay; type: toxicity, cell-based
[2] = target: T1, Cyclin-dependent kinase 8 (Homo sapiens, UniProt P49336); experiment: Inhibition of CDK8 (unknown origin) assessed as inhibition rate
[3] = target: T1, Cyclin-dependent kinase 8; conditions: dose 200.0 nM

T1 sequence (P49336 whole entry): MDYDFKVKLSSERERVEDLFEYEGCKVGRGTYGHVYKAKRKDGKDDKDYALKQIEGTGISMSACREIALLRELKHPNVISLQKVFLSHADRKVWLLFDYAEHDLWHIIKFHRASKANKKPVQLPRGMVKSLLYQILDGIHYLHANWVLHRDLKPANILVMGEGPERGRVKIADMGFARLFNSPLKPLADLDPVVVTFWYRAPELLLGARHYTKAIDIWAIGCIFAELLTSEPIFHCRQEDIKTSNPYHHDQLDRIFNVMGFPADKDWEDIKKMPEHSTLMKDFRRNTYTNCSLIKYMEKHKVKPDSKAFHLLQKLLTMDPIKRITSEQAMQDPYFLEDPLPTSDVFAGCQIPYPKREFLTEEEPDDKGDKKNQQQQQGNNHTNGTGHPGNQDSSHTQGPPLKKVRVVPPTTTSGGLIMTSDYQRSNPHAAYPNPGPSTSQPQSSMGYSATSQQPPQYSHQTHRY

SMILES | GI50 (HCT-116) [µM] | GI50 (HT-29) [µM] | GI50 (SW480) [µM] | GI50 (CT26) [µM] | GI50 at 48 h [1] [µM] | IC50 [2] [µM] | inhibition [3] [%]
Nc1ccc(Oc2ccc(NC(=O)Nc3ccc(Cl)c(C(F)(F)F)c3)cc2)cn1 | 15.7 | 3.4 | 3.9 | 12.9 | 26.8 |  | 
Nc1ccc(Oc2cccc(NC(=O)Nc3cccc(Cl)c3)c2)cn1 | 29.7 | 36.1 | 44.2 | 70.4 | > 100 |  | 
Nc1ccc(Oc2ccc(NC(=O)Nc3cccc(F)c3)cc2)cn1 | 70.9 | 49.9 | 45.2 | 66.7 | > 100 |  | 
Nc1ccc(Sc2ccc(NC(=O)Nc3cccc(C(F)(F)F)c3)cc2)cn1 | 43.6 | 16.7 | 8.2 | 10.3 | > 100 |  | 
Nc1ccc(Oc2cccc(NC(=O)Nc3cccc(C(F)(F)F)c3)c2)cn1 | 1.7 | 2.5 | 10.4 | 6.9 | > 100 |  | 
Nc1ccc(Oc2ccc(NC(=O)Nc3cccc(Br)c3)cc2)cn1 | > 100 | > 100 | 14 | 35.6 | > 100 |  | 
Nc1ccc(Oc2cccc(NC(=O)Nc3cccc(Br)c3)c2)cn1 | 21.3 | 50 | 29.6 | 44.5 | > 100 |  | 
CNC(=O)c1cc(Oc2ccc(NC(=O)Nc3ccc(Cl)c(C(F)(F)F)c3)cc2)ccn1 [SORAFENIB] | 19.8 | 25.6 | 14.7 | 30.2 | 28.9 |  | 
O=C(Nc1cccc(Oc2cnc3[nH]ccc3c2)c1)Nc1cccc(C(F)(F)F)c1 | 8 | 1.1 | 2.5 | 8.7 | 40.7 |  | 
Cc1ccc(NC(=O)Nc2cccc(Oc3ccc(N)nc3)c2)cc1Cl | > 100 | > 100 | > 100 | > 100 | > 100 |  | 
O=C(Nc1ccc(Oc2cnc3[nH]ccc3c2)cc1)Nc1ccc(Cl)c(C(F)(F)F)c1 |  | 2.3 | 1.4 | 8.3 |  |  | 
Nc1ccc(Oc2ccc(NC(=O)Nc3ccc(F)c(C(F)(F)F)c3)cc2)cn1 | 11.2 | 8.5 | 15.5 | 7.4 | 52.5 |  | 
O=C(Nc1ccc(Oc2cnc3[nH]ccc3c2)cc1)Nc1cccc(Cl)c1 | 90.1 | 41.1 | 30.7 | 20.9 |  |  | 
O=C(Nc1cccc(Oc2cnc3[nH]ccc3c2)c1)Nc1ccc(Cl)c(C(F)(F)F)c1 | 53.2 | 100 | 100 | > 100 |  |  | 
Nc1ccc(Oc2cccc(NC(=O)Nc3ccc(F)cc3)c2)cn1 | > 100 | > 100 | 10.9 | 52.3 | > 100 |  | 
Nc1ccc(Oc2cccc(NC(=O)Nc3ccc(F)c(Cl)c3)c2)cn1 | 4 | 19.1 | 17.9 | 23.5 | 31.3 |  | 
Cc1cccc(NC(=O)Nc2ccc(Oc3ccc(N)nc3)cc2)c1 | 37.4 | 59.4 | 12.5 | > 100 | > 100 |  | 
CC(=O)Nc1ccc(Oc2ccc(NC(=O)Nc3cccc(C(F)(F)F)c3)cc2)cn1 | 1.8 | 8.6 | 18.4 | 42.7 | 28.2 |  | 
Cn1cc(-c2ccc(-c3cncc(Cl)c3N3CCC4(CCNC4=O)CC3)cc2)cn1 | 9.6 | 7.8 | 10.4 | 11.3 | 42.7 | 0.0385 | 79
Cc1cccc(NC(=O)Nc2cccc(Oc3ccc(N)nc3)c2)c1 | 26.6 | 41.5 | 66.3 | > 100 | > 100 |  | 
Cc1ccc(NC(=O)Nc2cccc(Oc3ccc(N)nc3)c2)cc1 | > 100 | 19 | > 100 | > 100 | > 100 |  | 
Nc1ccc(Oc2ccc(NC(=O)Nc3cccc(Cl)c3Cl)cc2)cn1 | 54.6 | 18.8 | 77.5 | 88.2 | > 100 |  | 
Nc1ccc(Oc2cccc(NC(=O)Nc3ccc(Cl)c(C(F)(F)F)c3)c2)cn1 | 9.5 | 8.1 | 9.1 | 5.2 | 10.2 |  | 
Nc1ccc(Oc2ccc(NC(=O)Nc3cccc(Cl)c3)cc2)cn1 | 12.5 | 8.5 | 13.2 | > 100 | 65.5 |  | 
O=C(Nc1ccc(Oc2cnc3[nH]ccc3c2)cc1)Nc1cccc(C(F)(F)F)c1 |  | 2.1 | 1.9 | 5.3 |  |  | 
Cc1ccc(NC(=O)Nc2ccc(Oc3cnc4[nH]ccc4c3)cc2)cc1C(F)(F)F | > 100 | 39.8 | 30.1 | 55.2 | 24 |  | 
Nc1ccc(Oc2cccc(NC(=O)Nc3ccccc3F)c2)cn1 | 34.4 | 27.5 | 43 | 83.1 | 43.6 |  | 
COc1cccc(NC(=O)Nc2ccc(Oc3ccc(N)nc3)cc2)c1 | 20.4 | 9 | 22.5 | > 100 | 43.2 |  | 
Nc1ccc(Oc2cccc(NC(=O)Nc3ccc(F)c(C(F)(F)F)c3)c2)cn1 | 7.4 | 7.7 | 12.8 | 25.5 | 39.1 |  | 
Nc1ccc(Oc2cccc(NC(=O)Nc3ccc(Cl)c(Cl)c3)c2)cn1 | 7.6 | 30.3 | 29.2 | 32.4 | > 100 |  | 
